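Cells were grown in 96-well plates and exposed to each compound for 48 hours at five concentrations; endpoints were interpolated linearly between bracketing concentrations, or set to the highest concentration if not reached. Here, GI50 denotes the concentration required for 50% inhibition of growth. TGI denotes the concentration required for complete inhibition of growth.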 Where a SMILES comes first, the peptide text is derived from it. The star is where a group is joined. Boc = CC(C)(C)OC(=O)*
Columns and labels:
Assay in all cases: growth of human tumour cells (NCI), 48 h
[1] = system: SK-OV-3 ovarian
[2] = system: HOP-92 NSCLC
[3] = system: NCI-H522 lung
[4] = system: SF-539 CNS
[5] = system: M14 melanoma
[6] = system: HCT-15 colon
[7] = system: SF-268 CNS
[8] = system: OVCAR-4 ovarian
[9] = system: MALME-3M melanoma

Structure (SMILES) | TGI [1] [µM] | TGI [2] [µM] | TGI [3] [µM] | TGI [4] [µM] | TGI [5] [µM] | TGI [6] [µM] | TGI [7] [µM] | TGI [8] [µM] | TGI [9] [µM] | GI50 [1] [µM] | GI50 [2] [µM] | GI50 [3] [µM] | GI50 [5] [µM] | GI50 [6] [µM] | GI50 [7] [µM] | GI50 [9] [µM]
COc1ccc(N=C/C=C/Nc2ccc(OC)cc2)cc1 | 34.3 | 29.6 | 23.7 | 24.1 | 23.2 | 14.9 | 21.3 | 9.99 | 23.9 |  |  |  |  |  |  | 
COc1cccc(C2c3cc4c(cc3OC(N3CCOCC3)C2C)OCO4)c1O (configuration not stated) | 75.6 | 71.4 | 8.39 | 9.66 | 25 | 27.9 | > 79.1 | > 100 | > 78.6 |  |  |  |  |  |  | 
O=C1CC(O)c2c(Cl)sc(Cl)c21 (configuration not stated) | > 100 | 7.89 |  | 22.9 | 32.7 | 11.3 | 17.8 | 54.3 |  |  |  |  |  |  |  | 
CC(=O)O[C@H]1/C(=C/c2ccc(N(C)C)cc2)C[C@H]2[C@@H]3CC=C4C[C@@H](N5CCCC5)CC[C@]4(C)[C@H]3CC[C@]12C | > 100 | > 100 |  | > 100 | > 100 | > 100 | > 100 |  | > 100 |  |  |  |  |  |  | 
c1ccc2c(c1)SC1Sc3ccccc3[S+]21 (configuration not stated) | > 100 | 69.9 | 26.1 | 54.9 | 87.7 | > 79.5 | 39.8 | > 100 | 15.5 |  |  |  |  |  |  | 
CCCCNC(=S)Nc1nc(C(=O)NNS(=O)(=O)c2ccccc2)cs1 | > 100 | > 100 | > 100 | > 100 | > 100 | > 100 | > 100 |  | > 100 |  |  |  |  |  |  | 
O=c1[nH]cnc2c1ncn2[C@H]1CO[C@@H](CO)[C@@H]1O | > 100 | > 100 | > 100 | > 100 |  | > 100 | > 100 | > 100 | > 100 |  |  |  |  |  |  | 
COc1ccc(-c2cn3ccnc3c(-c3ccc4ncn(C5CCCCC5)c4c3)n2)cc1 | 7.64 | > 100 | 6.15 |  | > 100 | > 100 | > 100 |  | > 100 | 0.508 | 1.18 | 0.424 | 0.612 | 0.722 | 2.38 | 43.1
CCOC(=O)/C=C(/C(=O)OCC)n1cc(C)c(=O)n(Cc2cnnn2CCCCOC(C)=O)c1=O | > 100 | 20.2 | 14.2 | 32.9 |  | > 100 | > 100 | > 100 |  |  |  |  |  |  |  | 
Cc1nnc2c3c(-c4ccccc4)c(-c4ccccc4)oc3nc(N(C)C)n12 | > 100 | > 100 | > 100 | > 100 | > 100 | > 100 | > 100 | > 100 |  |  |  |  |  |  |  | 
CC(NC(=O)C(NC(=O)OC(C)(C)C)C(C)C)C(=O)NCC(=O)O (stereo not drawn) (Boc-Val-Ala-Gly-OH; configuration not given here) | > 100 | > 100 | > 100 | > 100 | > 100 | > 100 | > 100 |  | > 100 |  |  |  |  |  |  | 
COc1ccc(CNc2nc3ccccc3nc2-c2cccs2)cc1 | > 100 | > 100 | > 100 | > 100 |  | > 100 | > 100 | > 100 | > 100 |  |  |  |  |  |  | 
O=S1(=O)c2ccccc2N2CCCc3cc(Cl)cc1c32 | > 100 |  |  | > 100 | > 100 | > 100 | > 100 | > 100 | > 100 |  |  |  |  |  |  | 
C=C(Br)CN(C#N)CC(=C)Br | > 100 |  | > 100 | > 100 | > 100 | > 100 | > 100 | > 100 | > 100 |  |  |  |  |  |  | 
Cc1nc2c(Br)cc(Br)cc2c(=O)n1-c1ccccc1N | > 100 |  |  | > 100 | > 100 | > 100 | > 100 | > 100 | > 100 |  |  |  |  |  |  | 
O=C(CCCC(=O)N1CC(CCl)c2ccc([N+](=O)[O-])cc21)N1CC(CCl)c2ccc([N+](=O)[O-])cc21 (configuration not stated) | > 100 | > 100 | > 100 | > 100 | > 100 | > 100 | > 100 | > 100 |  |  |  |  |  |  |  | 
O=C(c1cccs1)N(C(=O)N1CCC(c2ccccc2)CC1)c1ccccc1 | > 100 |  |  | > 100 | > 100 | > 100 | > 100 |  | > 100 |  |  |  |  |  |  | 
CC(NC(=O)c1ccc(OP(=O)(OCC2=CC(=O)c3ccccc3C2=O)N(C)CCCCCl)cc1)c1ccc(OCC2CCCCC2)c(C(N)=O)c1 (configuration not stated) | 48.8 | 19.6 | 29 | 28.5 | 13 | 24.7 | 26.2 |  | 3.97 |  |  |  |  |  |  | 
CC(Nc1cc(Cl)cc(Cl)c1)c1ccncc1 (configuration not stated) |  |  | 32.6 | 40.8 | 33.4 | > 100 | 51.9 | > 100 | 54.9 |  |  |  |  |  |  | 
N#CC(c1ccccc1)c1cccc2ccccc12 (configuration not stated) |  |  | 53.9 | > 100 | 96.4 | > 100 | 98.8 | > 100 | 50.7 |  |  |  |  |  |  | 
COc1ccc(CN=CN/C(C#N)=C(\N)C#N)cc1OC | > 100 |  | > 100 | > 100 | > 100 | > 100 | > 100 | > 100 | > 100 |  |  |  |  |  |  | 
Clc1ccc(OCc2nnc(CCCCCCCCc3nnc(COc4ccc(Cl)cc4Cl)o3)o2)c(Cl)c1 | > 100 | > 100 | > 100 |  | > 100 | > 100 | > 100 | > 100 | > 100 |  |  |  |  |  |  | 
C=C[C@H]1CN2CC[C@H]1C[C@@H]2[C@@H](O)c1ccnc2ccccc12 | > 100 |  | > 100 | > 100 | > 100 | > 100 | > 100 | > 100 | > 100 |  |  |  |  |  |  | 
C=C1CCCCCCCCCCC1S(=O)c1ccccc1 (configuration not stated) | 96.4 | > 100 |  | 37.2 | 92.2 | > 100 | 95.8 | > 100 | > 100 |  |  |  |  |  |  | 
